Experimental data: ChEMBL document CHEMBL1146171, “Discovery and initial development of a novel class of antibacterials: inhibitors of Staphylococcus aureus transcription/translation” (Bioorg Med Chem Lett, 2006)
In brackets after ≈: the same amount, converted by molar mass.

What was measured:
Type in all cases: functional
Staphylococcus aureus [1] = test: Inhibition of coupled transcription/translation in Staphylococcus aureus at 100 uM; conditions: for inhibition at 100 µM / IC50: Staphylococcus aureus
Staphylococcus aureus [2] = test: Antibacterial activity against Staphylococcus aureus
Staphylococcus aureus [3] = test: Inhibition of coupled transcription/translation in Staphylococcus aureus at 30 uM
[4] = Staphylococcus aureus, read-out: MIC

Structure (SMILES)	inhibition at 100 µM (Staphylococcus aureus [1])	MIC (Staphylococcus aureus [2]; [4])	IC50 (Staphylococcus aureus [1])	Inhibition (Staphylococcus aureus [1])	MIC (Staphylococcus aureus [2])	inhibition at 30 µM (Staphylococcus aureus [3])
CCCN(c1ccccc1)S(=O)(=O)c1ccc(C(=O)Nc2ccc(C)cc2C(=O)O)cc1	34%	128 µg/mL (≈ 283 µM)				
O=C(Nc1ccc(Br)cc1C(=O)O)c1ccc(S(=O)(=O)N2CCc3cc(Cl)ccc32)cc1	71%	1 µg/mL (≈ 1.87 µM)	80 µM			
O=C(Nc1ccc(Br)cc1C(=O)O)c1ccc(S(=O)(=O)N2CCC[C@@H]2CO)cc1	19%	> 128 µg/mL				
CN(c1ccc(Cl)cc1)S(=O)(=O)c1ccc(C(=O)Nc2cc(Cl)ccc2C(=O)O)cc1	47%	64 µg/mL (≈ 134 µM)				
COc1ccc(N(C)S(=O)(=O)c2ccc(C(=O)Nc3ccc(Br)cc3C(=O)O)cc2)cc1	50%	32 µg/mL (≈ 61.6 µM)				
COC(=O)c1cc(Br)ccc1NC(=O)c1ccc(S(=O)(=O)Nc2cccc(OCc3ccccc3)c2)cc1	4%	> 128 µg/mL				
CCCN(CCC)S(=O)(=O)c1ccc(C(=O)Nc2ccc3ccccc3c2)cc1	10%	> 128 µg/mL				
Cc1cc(Br)ccc1NC(=O)c1ccc(S(=O)(=O)N(C)c2ccc(Cl)cc2)cc1	12%	> 128 µg/mL				
O=C(Nc1ccc(Br)cc1C(=O)O)c1ccc(S(=O)(=O)N2Cc3ccccc3C2)cc1	77%	4 µg/mL (≈ 7.98 µM)				
O=C(Nc1ccc(Br)cc1C(=O)O)c1ccc(S(=O)(=O)N2CCC(Cc3ccccc3)CC2)cc1	98%	16 µg/mL (≈ 28.7 µM)	28 µM			
Cl.O=C(Nc1ccc(Br)cc1C(=O)O)c1ccc(S(=O)(=O)N2CCCCC2)cc1	34%	16 µg/mL				
CN(c1ccc(Cl)cc1)S(=O)(=O)c1ccc(C(=O)Nc2ccc(Br)cc2C(=O)O)cc1	75%	8 µg/mL (≈ 15.3 µM)		80%	16 µg/mL (≈ 30.5 µM)	
O=C(Nc1ccc(Br)cc1C(=O)O)c1ccc(S(=O)(=O)N2CCCC23CCC(O)CC3)cc1 (stereo unspecified)	22%	8 µg/mL (≈ 14.9 µM)				
COc1cccc(NS(=O)(=O)c2ccc(C(=O)Nc3ccc(Br)cc3C(=O)O)cc2)c1	20%	16 µg/mL (≈ 31.7 µM)				
O=C(Nc1ccc(Br)cc1C(=O)O)c1ccc(S(=O)(=O)N2CCc3ccc(Cl)cc32)cc1	96%	1 µg/mL (≈ 1.87 µM)	40 µM		0.5 µg/mL (≈ 0.933 µM)	93%
O=C(Nc1ccc(Br)cc1C(=O)O)c1ccc(S(=O)(=O)N2CC3CCC2CC3)cc1	57%	8 µg/mL (≈ 16.2 µM)				
CCCN(c1ccccc1)S(=O)(=O)c1ccc(C(=O)Nc2ccc(Br)cc2C(=O)O)cc1	80%	16 µg/mL (≈ 30.9 µM)				
CN(c1ccc(Cl)cc1)S(=O)(=O)c1ccc(C(=O)Nc2ccc(F)cc2C(=O)O)cc1	30%	> 128 µg/mL				
O=C(Nc1ccc(Br)cc1C(=O)O)c1ccc(S(=O)(=O)N2CCC(c3ccccc3)CC2)cc1	96%	8 µg/mL (≈ 14.7 µM)	55 µM			
O=C(Nc1ccc(Br)cc1C(=O)O)c1cc(S(=O)(=O)NC2Cc3ccccc3C2)ccc1Br		0.25 µg/mL (≈ 0.421 µM)				30%
O=C(Nc1ccc(Br)cc1C(=O)O)c1ccc(S(=O)(=O)N2CCc3ccccc3C2)cc1	84%	8 µg/mL (≈ 15.5 µM)	60 µM			
O=C(Nc1ccc(Br)cc1C(=O)O)c1ccc(S(=O)(=O)Nc2cccc(OCc3ccccc3)c2)cc1	75%	8 µg/mL (≈ 13.8 µM)				

Structure (SMILES)	inhibition at 100 µM (Staphylococcus aureus [1])	MIC (Staphylococcus aureus [2]; [4])	IC50 (Staphylococcus aureus [1])	Inhibition (Staphylococcus aureus [1])	MIC (Staphylococcus aureus [2])	inhibition at 30 µM (Staphylococcus aureus [3])
COc1ccc(NC(=O)c2ccc(S(=O)(=O)Nc3cccc(C(F)(F)F)c3)cc2)c(C(=O)O)c1	35%	> 128 µg/mL				
COCCN(CCOC)S(=O)(=O)c1ccc(C(=O)Nc2ccc(Br)cc2C(=O)O)cc1	10%	32 µg/mL (≈ 62.1 µM)				
CCCN(c1ccccc1)S(=O)(=O)c1ccc(C(=O)Nc2ccc(I)cc2C(=O)O)cc1	90%	16 µg/mL (≈ 28.3 µM)				
CCCN(CCC)S(=O)(=O)c1ccc(C(=O)Nc2cc3ccccc3cc2O)cc1	10%	> 128 µg/mL				
CN(c1ccc(Cl)cc1)S(=O)(=O)c1ccc(C(=O)Nc2ccc(Cl)cc2C(=O)O)cc1	85%	16 µg/mL (≈ 33.4 µM)				
CC1(C)Cc2ccccc2N1S(=O)(=O)c1ccc(C(=O)Nc2ccc(Br)cc2C(=O)O)cc1	87%	2 µg/mL (≈ 3.78 µM)	55 µM			
O=C(Nc1ccc(Br)cc1C(=O)O)c1ccc(S(=O)(=O)Nc2cccc(C(F)(F)F)c2)cc1	65%	8 µg/mL (≈ 14.7 µM)				
Cc1ccc(C(=O)Nc2ccc(Br)cc2C(=O)O)cc1S(=O)(=O)NC1Cc2ccccc2C1		0.25 µg/mL (≈ 0.472 µM)				20%
CCCN(CCC)S(=O)(=O)c1ccc(C(=O)Nc2cc3ccccc3cc2C(=O)O)cc1	30%	64 µg/mL (≈ 141 µM)				
CCCN(CCC)S(=O)(=O)c1ccc(C(=O)Nc2c(OC)cc(OC)cc2C(=O)O)cc1	0%	> 128 µg/mL				
CCCN(CCC)S(=O)(=O)c1ccc(C(=O)Nc2ccc(Br)cc2C(=O)O)cc1	61%	8 µg/mL (≈ 16.5 µM)				
N#Cc1cccc(NS(=O)(=O)c2ccc(C(=O)Nc3ccc(Br)cc3C(=O)O)cc2)c1	30%	64 µg/mL (≈ 128 µM)				
CN(c1ccc(Cl)cc1)S(=O)(=O)c1ccc(C(=O)Nc2ccc(Cl)c(C(=O)O)c2)cc1	10%	> 128 µg/mL				
CCCN(c1ccccc1)S(=O)(=O)c1ccc(C(=O)Nc2ccc(Cl)cc2C(=O)O)cc1	50%	32 µg/mL (≈ 67.7 µM)				
O=C(Nc1ccc(Br)cc1C(=O)O)c1ccc(S(=O)(=O)Nc2ccc(Cl)cc2)cc1	45%	16 µg/mL (≈ 31.4 µM)				
O=C(Nc1ccc(Br)cc1C(=O)O)c1ccc(S(=O)(=O)N2CCCC23CCCCC3)cc1	90%	4 µg/mL (≈ 7.67 µM)	60 µM			
O=C(Nc1cc(F)c(F)cc1C(=O)O)c1ccc(S(=O)(=O)Nc2cccc(C(F)(F)F)c2)cc1	55%	> 128 µg/mL				
O=C(Nc1ccc(Br)cc1C(=O)O)c1cc(S(=O)(=O)Nc2ccc3c(c2)OCCO3)ccc1Br		0.5 µg/mL (≈ 0.817 µM)				15%
O=C(Nc1ccc(Br)cc1C(=O)O)c1ccc(S(=O)(=O)N2CCCCC2)cc1		16 µg/mL (≈ 34.2 µM)		35%		
CC1(c2ccccc2)CCCN(S(=O)(=O)c2ccc(C(=O)Nc3ccc(Br)cc3C(=O)O)cc2)C1 (stereo unspecified)	96%	16 µg/mL (≈ 28.7 µM)	30 µM			
O=C(Nc1ccc(Br)cc1C(=O)O)c1ccc(S(=O)(=O)N2CC3CCCC(C3)C2)cc1	88%	4 µg/mL (≈ 7.88 µM)	60 µM			
O=C(Nc1ccc(Br)cc1C(=O)O)c1ccc(S(=O)(=O)N2CCC(Nc3ccccc3)CC2)cc1	62%	32 µg/mL (≈ 57.3 µM)				
